`O.O.O.O.O.O.[Cl-].[Cl-].[Co+2]` [CoCl2.6H2O]: the maximal inhibitory concentration was around 50 µg/mL with RAW 264.7 macrophages and around 25 µg/mL with NIH-3T3 fibroblasts.
For the compound hyaluronic acid [HA], the “cytocompatibility (cell enumeration, metabolism, toxicity)” value in the series with RAW 264.7 macrophages and with NIH-3T3 fibroblasts was “cytocompatible” each time.

(Values after US11479617B2, “Chelator-functionalized glycosaminoglycans” (priority 2018, dated 2022).)
